Measurements: patent US20130183239A1, “ISOTOPIC CARBON CHOLINE ANALOGS” (IMPERIAL COLLEGE, priority 2010, published 2013)

Legend:
[1] = system: human melanoma (A375), prostate (PC3-M) and colon (HCT116) cancer cell lines; test: In vitro 18F-D4-choline uptake in cancer cell lines; format: cell-based; details: the three cell lines over 30 min
Method: Uptake was measured in vehicle-treated (closed symbols) and hemicholinium-3-treated cells (5 mM; open symbols). Mean values+SEM are shown (n=3). Insert: representative western blot of choline kinase-α expression in the three cell lines. Actin was used as a loading control. Abbreviations: CKα, choline kinase alpha.
Cells (5×10^5) were plated into 6-well plates the night prior to analysis. On the day of the experiment, fresh growth medium, containing 40 μCi ^18F-D4-choline, was added to individual wells. Cell uptake was measured following incubation at 37° C. in a humidified atmosphere of 5% CO2 for 60 min. Plates were subsequently placed on ice, washed 3 times with ice-cold PBS and lysed in RIPA buffer (Thermo Fisher Scientific Inc., Rockford, Ill., USA; 1 mL, 10 min). […] Aliquots were snap-frozen and used for protein determination following radioactive decay using a BCA 96-well plate assay (Thermo Fisher Scientific Inc., Rockford, Ill., USA). Data were expressed as percent of total radioactivity per mg protein. For hemicholinium-3 treatment (5 mM; Sigma-Aldrich), cells were incubated with the compound 30 min prior to addition of radioactivity and for the duration of the uptake time course. […]

[2] = mouse, in vivo
Method: Metabolite analysis of tissues including liver, kidney and tumor by HPLC was also accomplished. […] Choline and its metabolites lack any UV chromophore to permit presentation of chromatograms of the cold unlabelled compound simultaneously with the radioactivity chromatograms.
Liver, kidney, and tumor samples were obtained at 30 min. All samples were snap-frozen in liquid nitrogen. For analysis, samples were thawed and kept at 4° C. immediately before use. To ˜0.2 mL plasma was added ice-cold methanol (1.5 mL). The mixture was then centrifuged (3 min, 15,493×g, 4jC). The supernatant was evaporated to dryness using a rotary evaporator (Heidoloph Instruments) at a bath temperature of 40° C. The residue was suspended in mobile phase (1.1 mL), clarified (0.2 Am filter), and analyzed by HPLC. Liver, kidney, and tumor samples were homogenized in ice-cold methanol (1.5 mL) using an IKA Ultra-Turrax T-25 homogenizer and subsequently treated as per plasma samples (above). All samples were analyzed by radio-HPLC on an Agilent 1100 series HPLC system (Agilent Technologies) equipped with a γ-RAM Model 3 γ-detector (IN/US Systems) and Laura 3 software (Lablogic). The stationary phase comprised a Waters μBondapak C18 reverse-phase column (300×7.8 mm) (Waters, Milford, Mass., USA). Samples were analyzed using a mobile phase comprising solvent A (acetonitrile/water/ethanol/acetic acid/1.0 mol/L ammonium acetate/0.1 mol/L sodium phosphate; 800/127/68/2/3/10) and solvent B (acetonitrile/water/ethanol/acetic acid/1.0 mol/L ammonium acetate/0.1 mol/L sodiumphosphate; 400/400/68/44/88/10) with a gradient of 0% B for 6 min, then 0→100% B in 10 min, 100% B for 0.5 min, 100→0% B in 1.5 min then 0% B for 2 min, delivered at a flow rate of 3 mL/min.

[3] = system: choline oxidase; test: Enzymatic oxidation study using choline oxidase; details: 60 minute time point, radio-HPLC
[4] = Potassium permanganate oxidation study; format: physicochemical; details: 1 hour post-treatment with potassium permanganate, room temperature, radio-HPLC
Description: Reagents and Conditions: i) KMnO4, Na2CO3, H2O, rt.

[5] = mouse, in vivo; remark: listed apart in the source
Method: ^11C-choline, ^11C-D4-choline (˜18.5 MBq) and ^18F-D4-choline (˜3.7 MBq) were each injected via the tail vein of anaesthetized BALB/c nude mice. The mice were maintained under anesthesia and sacrificed by exsanguination via cardiac puncture at 2, 15, 30 or 60 min post radiotracer injection to obtain blood, plasma, heart, lung, liver, kidney and muscle. Tissue radioactivity was determined on a gamma counter (Cobra II Auto-Gamma counter, Packard Biosciences Co, Pangbourne, UK) and decay corrected. Data were expressed as percent injected dose per gram of tissue.
Time course biodistribution was performed in non-tumor-bearing male nude mice with ^11C-choline, ^11C-D4-choline and ^18F-D4-choline tracers.

SMILES: [2H]C([2H])(O)C([2H])([2H])[N+](C)(C)C[18F] [[^18F]D4-FCH, [^18F]fluoromethyl-[1,2-^2H4]-choline]
- in vitro uptake of 18F-D4-choline [1]: similar
- kidney radioactivity as phosphocholine [2]: 60.6±3.7%
- kidney radioactivity in the form of betaine [2]: 20.6±6.2%
- unknown metabolite (possibly the aldehyde intermediate) in liver [2]: 7.4±2.3%
- unknown metabolite in kidney [2]: 8.8±0.2%
- form of radioactivity in tumors ([2]; iv): mainly in the form of phosphocholine
- parent radiotracer present [3]: 29±4%
- parent compound still present [4]: ~80%
- increase in kidney retention compared to 11C-choline [5]: 3.3 fold
- urinary excretion [5]: trend towards increased urinary excretion
